Source: patent US7250521B2, “Method for production of Δ1-pyrrolines” (Bayer CropScience Aktiengesellschaft, priority 2001, dated 2007)

Test: logP determination by HPLC on reverse-phase column (C 18), EEC directive 79/831 Annex V.A8
Assay type: physicochemical
Description: In the acidic range, the determination is carried out at pH 2.3 using the mobile phases 0.1% aqueous phosphoric acid and acetonitrile; linear gradient from 10% acetonitrile to 90% acetonitrile.
In the neutral range, the determination is carried out at pH 7.5 using the mobile phases 0.01 molar aqueous phosphate buffer solution and acetonitrile; linear gradient from 10% acetonitrile to 90% acetonitrile.

[1] = reverse-phase HPLC column (C 18), pH 2.3, acidic range, pH 2.3; 0.1% aqueous phosphoric acid/acetonitrile gradient; 43° C.; values marked a)
[2] = reverse-phase HPLC column (C 18), pH 7.5, neutral range, pH 7.5; 0.01 molar aqueous phosphate buffer/acetonitrile gradient; 43° C.; values marked b)

chromatographic logP [1]	chromatographic logP [2]	logP (acidic range, pH 2.3; 0.1% aqueous phosphoric acid/acetonitrile gradient; 43° C.; values marked a))	Structure (SMILES)
3.24			O=C1CCC(c2ccc(-c3ccc(SC(F)(F)F)cc3)cc2)N1 (single isomer, unassigned; isomer 5) [V-2 para isomer, 5-{4′-[(trifluoromethyl)thio]-1,1′-biphenyl-4-yl}-2-pyrrolidinone]
3.61			FC(F)(F)Oc1ccc(C2CCC(c3ccccc3Br)=N2)cc1 (stereo not drawn) [Example 1, 5-(2-bromophenyl)-2-[4-(trifluoro-methoxy)phenyl]-3,4-dihydro-2H-pyrrole]
3.9			FC(F)(F)c1ccccc1C1=NC(c2ccc(Br)cc2)CC1 (stereo not drawn) [Example 2]
5.11			FC(F)(F)Oc1ccc(-c2ccc(C3CCC(c4ccccc4C(F)(F)F)=N3)cc2)cc1 (stereo not drawn) [Example 3]
3.09	5.45		Fc1ccccc1C1=NC(c2ccc(-c3ccc(OC(F)(F)F)cc3)cc2)CC1 (stereo not drawn) [Example 4]
2.55	5.23		COc1ccccc1C1=NC(c2ccc(-c3ccc(OC(F)(F)F)cc3)cc2)CC1 (stereo not drawn) [Example 5]
5.7			Cc1cccc(C)c1C1=NC(c2ccc(-c3ccc(OC(F)(F)F)cc3)cc2)CC1 (stereo not drawn) [Example 6]
4.83			FC(F)(F)Oc1ccc(-c2ccc(C3CCC(c4ccccc4OC(F)(F)F)=N3)cc2)cc1 (stereo not drawn) [Example 7]
5.69			FC(F)(F)Oc1ccc(-c2ccc(C3CCC(c4ccc(Cl)cc4Cl)=N3)cc2)cc1 (stereo not drawn) [Example 8]
2.41			Fc1cccc(F)c1C1=NC(c2ccc(OCC(F)(F)F)cc2)CC1 (stereo not drawn) [Example 9]
1.63			C=CCOc1ccc(C2CCC(c3ccccc3F)=N2)cc1 (stereo not drawn) [Example 10]
2.99			Clc1ccccc1C1=NC(c2cccc(Br)c2)CC1 (stereo not drawn) [Example 15]
4.67	5.94		FC(F)(F)Sc1ccc(-c2ccc(C3CCC(c4ccccc4Cl)=N3)cc2)cc1 (stereo not drawn) [Example 16]
3.45	5.84		Fc1ccccc1C1=NC(c2ccc(-c3ccc(SC(F)(F)F)cc3)cc2)CC1 (stereo not drawn) [Example 17]
3.25	6.1		Cc1ccccc1C1=NC(c2ccc(-c3ccc(SC(F)(F)F)cc3)cc2)CC1 (stereo not drawn) [Example 18]
6.19			FC(F)(F)Sc1ccc(-c2ccc(C3CCC(c4ccc(Cl)cc4Cl)=N3)cc2)cc1 (stereo not drawn) [Example 19]
3.05			CC(C)(C)c1ccc(C2CCC(c3ccccc3Cl)=N2)cc1 (stereo not drawn) [Example 20]
2.74			CC(C)c1ccc(C2CCC(c3ccccc3Cl)=N2)cc1 (stereo not drawn) [Example 21]
2.09			CC(C)c1ccc(C2CCC(c3ccccc3F)=N2)cc1 (stereo not drawn) [Example 22]

chromatographic logP [1]	chromatographic logP [2]	logP (acidic range, pH 2.3; 0.1% aqueous phosphoric acid/acetonitrile gradient; 43° C.; values marked a))	Structure (SMILES)
3.06			CC(C)c1ccc(C2CCC(c3ccccc3Br)=N2)cc1 (stereo not drawn) [Example 23]
2.33	5.06		CC(C)(C)c1ccc(C2CCC(c3ccccc3F)=N2)cc1 (stereo not drawn) [Example 24]
2.11	5.01		Cc1ccccc1C1=NC(c2ccc(C(C)C)cc2)CC1 (stereo not drawn) [Example 25]
3.36	5.21		CC(C)(C)c1ccc(C2CCC(c3ccccc3Br)=N2)cc1 (stereo not drawn) [Example 26]
2.31			Cc1ccccc1C1=NC(c2ccc(C(C)(C)C)cc2)CC1 (stereo not drawn) [Example 27]
3.18	4.62		Cc1cc(Cl)ccc1C1CCC(c2ccccc2Cl)=N1 (stereo not drawn) [Example 28]
3.55	4.63		Cc1cc(Cl)ccc1C1CCC(c2ccccc2Br)=N1 (stereo not drawn) [Example 29]
2.06	4.79		Cc1ccccc1C1=NC(c2ccc(Cl)cc2C)CC1 (stereo not drawn) [Example 30]
1.41			Cc1ccccc1C1=NC(c2ccc(F)cc2)CC1 (stereo not drawn) [Example 31]
1.12	3.34		Fc1ccc(C2CCC(c3ccccc3)=N2)cc1 (stereo not drawn) [Example 32]
1.98	4.05		Fc1ccc(C2CCC(c3cccc(Cl)c3)=N2)cc1 (stereo not drawn) [Example 33]
1.63	3.99		Fc1ccc(C2CCC(c3ccc(Cl)cc3)=N2)cc1 (stereo not drawn) [Example 34]
2.18			CC(C)Sc1ccc(C2CCC(c3c(F)cccc3F)=N2)cc1 (stereo not drawn) [Example 36]
3.78	3.95		Fc1ccc(C2CCC(c3c(Cl)cccc3Cl)=N2)cc1 (stereo not drawn) [Example 37]
3.52	4.86		Cc1ccc(C2CCC(c3ccccc3Cl)=N2)c(Cl)c1 (stereo not drawn) [Example 38]
2.09	4.51		Cc1cc(Cl)ccc1C1CCC(c2ccccc2F)=N1 (stereo not drawn) [Example 39]
1.97	3.52		COc1ccc(C2CCC(c3ccccc3Cl)=N2)cc1F (stereo not drawn) [Example 40]
	4.5		FC(F)(F)Oc1ccc(C2CCC(c3ccccc3Cl)=N2)cc1 (stereo not drawn) [Example 41]
1.79	3.5		COc1ccc(C2CCC(c3ccccc3Br)=N2)cc1 (stereo not drawn) [Example 42]

chromatographic logP [1]	chromatographic logP [2]	logP (acidic range, pH 2.3; 0.1% aqueous phosphoric acid/acetonitrile gradient; 43° C.; values marked a))	Structure (SMILES)
2.22			COc1ccc(C2CCC(c3ccccc3Br)=N2)cc1F (stereo not drawn) [Example 43]
2.68	4.59		Clc1ccc(C2=NC(c3ccccc3)CC2)cc1Cl (stereo not drawn) [Example 44]
3.83	4.75		Clc1ccc(C2CCC(c3ccccc3Cl)=N2)cc1Cl (stereo not drawn) [Example 45]
4.66	5.2		Clc1ccc(C2CCC(c3ccccc3Cl)=N2)c(Cl)c1 (stereo not drawn) [Example 46]
3.98	4.88		Cc1ccc(C2CCC(c3ccccc3Br)=N2)c(Cl)c1 (stereo not drawn) [Example 47]
1.73	3.97		Clc1cccc(C2=NC(c3ccccc3)CC2)c1 (stereo not drawn) [Example 48]
2.67	3.86		Fc1ccc(C2CCC(c3ccccc3Cl)=N2)cc1F (stereo not drawn) [Example 49]
2.39	4.74		Cc1ccc(C2CCC(c3ccccc3F)=N2)c(Cl)c1 (stereo not drawn) [Example 50]
3.79	4.36		Fc1ccc(C2CCC(c3cc(Cl)ccc3Cl)=N2)cc1 (stereo not drawn) [Example 51]
3.01	5.78		CCOc1cc(C(C)(C)C)ccc1C1CCC(c2ccccc2Cl)=N1 (stereo not drawn) [Example 52]
		3.63^a)	FC(F)(F)Oc1ccc(C2CCC(c3ccccc3Br)=N2)cc1 (stereo not drawn) [Example 53]
2.98	4.67		Cc1ccc(C2CCC(c3ccccc3Cl)=N2)cc1Cl (stereo not drawn) [Example 54]
2.19	4		CSc1ccc(C2CCC(c3ccccc3Cl)=N2)cc1 (stereo not drawn) [Example 55]
3.01	3.89		Fc1ccc(C2CCC(c3ccccc3Br)=N2)cc1F (stereo not drawn) [Example 56]
3.31	5.8		CCOc1cc(C(C)(C)C)ccc1C1CCC(c2ccccc2Br)=N1 (stereo not drawn) [Example 57]
2.5	4.03		CSc1ccc(C2CCC(c3ccccc3Br)=N2)cc1 (stereo not drawn) [Example 58]
2.88			Fc1cccc(F)c1C1=NC(c2ccc(SCc3ccc(Cl)cc3)cc2)CC1 (stereo not drawn) [Example 59]
2.9	3.96		Fc1ccc(C2CCC(c3ccccc3Cl)=N2)c(F)c1 (stereo not drawn) [Example 60]
